We go through four compounds from ChEMBL document CHEMBL1201862, “PubChem BioAssay data set” (2004).

Assay in all cases: NCI tumour cell line growth inhibition, 48 h
In assay [1] the test system is SF-295.
The subject of assay [2] is UACC-62.
Assay [3] concerns HCT-15.
Assay [4] has as its system HCT-116.
Assay [5] deals with A549.
The test system of assay [6] is A498.
For assay [7], the system named is OVCAR-3.
The subject of assay [8] is IGROV-1.
In assay [9] the test system is NCI-H23.
The subject of assay [10] is MDA-N.
In assay [11] the test system is SW-620.
In assay [12] the test system is DU-145.
For assay [13], the system named is OVCAR-5.
Assay [14] deals with MDA-MB-435.
The test system of assay [15] is NCI-H226.
The subject of assay [16] is U-251.
The test system of assay [17] is PC-3.
Assay [18] has as its system SNB-19.
Assay [19] has as its system SK-MEL-28.
Assay [20] relates to TK-10.

The structures appear in SMILES notation.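 Values below derive from 48-hour exposures of cells grown in 96-well plates, with endpoints linearly interpolated between the two concentrations bracketing the appropriate inhibition level. Here, GI50 denotes the concentration required for 50% inhibition of growth.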 The source made the active and inactive calls. No stated cut-off is given here; in the data, active = GI50 up to about 1.1 µM and inactive = higher.

For the compound `C1=N\c2ccc(cc2)/N=C\c2ccc(cc2)OCc2cccc(n2)COc2ccc/1cc2`, the GI50 in assay [1] was > 100 µM (inactive); in [2], > 100 µM (inactive); in assay [3], over 100 µM; in [4], > 100 µM (inactive); in assay [5], > 100 µM (inactive); in assay [6], > 100 µM (inactive). Moreover, the GI50 in assay [7], in [8], in assay [9], in assay [10], in [11] and in [12] was > 100 µM (inactive) in each case. In addition, the GI50 in [13], in assay [14], in [15], in assay [16], in assay [17] and in assay [18] was > 100 µM (inactive) throughout. Moreover, the GI50 in assay [19] is > 100 µM (inactive).
For the compound `CCc1c[n+]([O-])c(C)cc1[N+](=O)[O-]`, the GI50 is > 100 µM (inactive) in assay [1]; 49.9 µM (inactive) in assay [2]; 18.8 µM in [3]; 26.3 µM (inactive) in [4]; 56.1 µM (inactive) in [5]; > 100 µM (inactive) in assay [6]. Also, the GI50 in assay [7] is > 100 µM (inactive); in [8] it was > 100 µM (inactive); in assay [9] it was 74.1 µM (inactive); in [10], 44.2 µM (inactive); in assay [11], 33.3 µM (inactive); in assay [12], 28 µM (inactive). Further, the GI50 in assay [13] is > 100 µM (inactive); in assay [14] it was 57.9 µM (inactive); in [20], 35.2 µM (inactive); in assay [16] it was 99.5 µM (inactive); in [17], > 100 µM (inactive); in assay [18] it was > 100 µM (inactive). Further, the GI50 in [19] is > 100 µM (inactive).
As to `CCCCCCCCCCCCCCCCS(=O)(=O)c1ccc(NN)cc1`, the GI50 was > 10 µM (inactive) in assay [1]; > 10 µM (inactive) in [2]; over 10 µM in [3]; 4.76 µM (inactive) in assay [4]; 5.27 µM (inactive) in assay [5]; > 10 µM (inactive) in assay [6]. The GI50 in [7] was 8.81 µM (inactive); in assay [8], > 10 µM (inactive); in assay [9], 4.88 µM (inactive); in assay [10], > 10 µM (inactive); in assay [11], > 10 µM (inactive); in assay [12], > 10 µM (inactive). The GI50 is > 10 µM (inactive) in assay [13]; > 10 µM (inactive) in assay [14]; > 10 µM (inactive) in assay [20]; 6.19 µM (inactive) in assay [16]; 2.83 µM (inactive) in [17]; > 10 µM (inactive) in [18]. Besides, the GI50 in assay [19] is > 10 µM (inactive).
`COC(=O)C(COC(=O)/C=C/c1ccc(OC(C)=O)c(OC(C)=O)c1)NC(=O)/C=C/c1ccc(OC(C)=O)c(OC(C)=O)c1` (stereo not given): the GI50 in [2] was 15 µM (inactive); in assay [3] it was 25.5 µM; in assay [4] it was 19.2 µM (inactive); in assay [5], 40.9 µM (inactive); in assay [6], > 100 µM (inactive); in assay [7], 15.4 µM (inactive). In addition, the GI50 in assay [8] is 43.6 µM (inactive); in assay [9], 25.9 µM (inactive); in assay [10] it was 20.5 µM (inactive); in assay [11] it was 33.4 µM (inactive); in [12], 20.8 µM (inactive); in [13], 38.7 µM (inactive). The GI50 in assay [14] was 28.3 µM (inactive); in [15] it was 36.2 µM (inactive); in assay [16], 28.4 µM (inactive); in assay [17] it was 13.6 µM (inactive); in assay [18] it was 22.9 µM (inactive); in assay [19] it was 26.2 µM (inactive).
